Patent publication US8404866B2, “Substituted heterocyclic mercaptosulfonamide metalloprotease inhibitors” (Florida State University Research Foundation, priority 2008, dated 2013)
Structures can show the parent of a compound that is named as a salt.

Legend:
[1] = biological target: T1, MMP-1 (HFC; human fibroblast collagenase) (Homo sapiens, UniProt P03956); assay: Enzyme kinetic assay, inhibition of MMP-1; type: biochemical; settings: for Ki: read-out: Ki (value in parentheses), HFC MMP-1; for IC50: 25° C., pH 7.5, substrate 1 μM, read-out: IC50 (value without parentheses), HFC MMP-1
T1 sequence (P03956 100-469): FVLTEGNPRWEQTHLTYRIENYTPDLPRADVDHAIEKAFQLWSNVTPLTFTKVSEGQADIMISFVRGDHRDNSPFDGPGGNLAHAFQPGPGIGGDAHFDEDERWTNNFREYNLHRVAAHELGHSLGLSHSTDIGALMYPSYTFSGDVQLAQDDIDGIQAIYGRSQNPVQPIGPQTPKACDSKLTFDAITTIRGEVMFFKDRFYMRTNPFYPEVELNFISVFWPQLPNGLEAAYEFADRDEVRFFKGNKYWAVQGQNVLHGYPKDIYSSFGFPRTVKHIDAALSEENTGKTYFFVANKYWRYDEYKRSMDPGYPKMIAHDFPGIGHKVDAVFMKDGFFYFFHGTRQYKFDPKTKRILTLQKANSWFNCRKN
Source text: (§1) The following protocol was used to obtain the data found in the following table. Materials: The fluorescent peptide substrates for matrix metalloproteinases (MMPs) used were purchased from Bachem Chem. Co. The metal salts and Brij-35 were purchased from Fisher Scientific Inc. All other chemicals were purchased from Sigma-Aldrich Chem. Co. The sources and biochemical characterizations of multiple MMPs, including MMP-1/human fibroblast collagenase (HFC), MMP-2/human fibroblast gelatinase (HFG), MMP-8/human neutrophil collagenase (HNC), and MMP-9/human neutrophil gelatinase (HNG), MMP-7/human matrilysin (MLN), MMP-3/human fibroblast stromelysin-1 (HFS), human recombinant catalytic domain of membrane-type 1 matrix metalloproteinase (cdMT1-MMP), catalytic domain of MMP-12/metalloelastase (cdMET), and MMP-26/human endometase (EDM) were described previously (Sang, Q. X., Birkedal-Hansen, H., and Van Wart, H. E. Proteolytic and non-proteolytic activation of human neutrophil progelatinase B. Biochim. Biophys. Acta. 1995; 1251, 99-108; Sang, Q. A., Bodden, M. K., and Windsor, L. J. Activation of human progelatinase A by collagenase and matrilysin: activation of procollagenase by matrilysin. J. Protein. Chem. 1996; 15, 243-253; Li, H., Bauzon, D. E., Xu, X., Tschesche, H., Cao, J., and Sang, Q.-X. A. Immunological characterization of cell-surface and soluble forms of membrane type 1 matrix metalloproteinase in human breast cancer cells and in fibroblasts. Molec. Carcinog. 1998; 22, 84-94; Park, H. I., Ni, J., Gerkema, F. E., Liu, D., Belozerov, V. E., and Sang, Q.-X. A. Identification and characterization of human endometase (Matrix metalloproteinase-26) from endometrial tumor. J. Biol. Chem., 2000; 275, 20540-20544). The active concentrations of MMPs were determined by titration with GM6001, a tight-binding MMP inhibitor, as described previously (Park, H. I., Turk, B. E., Gerkema, F. E., Cantley, L. C., and Sang, Q.-X. A. Peptide substrate specificities and protein cleavage sites of human endometase/matrilysin-2/matrix metalloproteinase-26. J. Biol. Chem. 2002; 277, 35168-35175).
(§2) The active inhibitor concentrations were estimated by titrating the mercapto group with 5,5′-dithiobis(2-nitrobenzoic acid) (DTNB; Ellman's reagent) as described previously (Ellman, G. L. A colorimetric method for determining low concentrations of mercaptans. Arch. Biochem. Biophys. 1958; 74, 443-450; Ellman, G. L. Tissue sulfhydryl groups. Arch. Biochem. Biophys. 1959; 82, 70-77; Riddles, P. W., Blakeley, R. L., and Zerner, B. Ellman's reagent: 5,5′-dithiobis(2-nitrobenzoic acid)—a reexamination. Anal. Biochem. 1979; 94, 75-81). Briefly, the reaction of DTNB with the mercapto group produces 2-nitro-5-thiobenzoic acid (TNB). The concentration of TNB is then measured by monitoring the absorbance at 412 nm. Cysteine was used to generate the standard curve with a molar extinction coefficient of 14,000±500 M^−1 cm^−1, which is close to the value in the literature (Riddles, P. W., Blakeley, R. L., and Zerner, B. Ellman's reagent: 5,5′-dithiobis(2-nitrobenzoic acid)—a reexamination. Anal. Biochem. 1979; 94, 75-81).
(§3) The substrate Mca-PLGLDpaAR-NH2 was used to measure inhibition constants (Knight, C. G., Willenbrock. F., and Murphy, G. A novel coumarin-labelled peptide for sensitive continuous assays of the matrix metalloproteinases. FEBS Lett. 1992; 296, 263-266). Enzymatic assays were performed at 25° C. in 50 mM HEPES buffer at pH 7.5 in the presence of 10 mM CaCl2, 0.2 M NaCl, and 0.01% or 0.05% Brij-35 with substrate concentrations of 1 μM. The release of product was monitored by measuring fluorescence (excitation and emission wavelengths of 328 nm and 393 nm, respectively) with a Perkin Elmer Luminescence Spectrophotometer LS 50B connected to a temperature controlled water bath. All stock solutions of inhibitors were in dimethyl sulfoxide. […]

[2] = biological target: T2, MMP-14 (cdMT-1; human recombinant catalytic domain of membrane-type 1 matrix metalloproteinase) (Homo sapiens, UniProt P50281); assay: Enzyme kinetic assay, inhibition of MMP-14; type: biochemical; settings: read-out: Ki (value in parentheses), cdMT-1 MMP-14
T2 construct: human recombinant catalytic domain of membrane-type 1 matrix metalloproteinase (cdMT1-MMP)
Source text: as §1, §2, §3

MMP-13 (COL-3) = MMP-13 (COL-3) (Homo sapiens, UniProt P45452); assay: Enzyme kinetic assay, inhibition of MMP-13; type: biochemical; settings: read-out: Ki (value in parentheses), COL-3 MMP-13
Source text: as §1, §2, §3

[3] = biological target: T3, MMP-26 (EDM; human endometase) (Homo sapiens, UniProt Q9NRE1); assay: Enzyme kinetic assay, inhibition of MMP-26; type: biochemical; settings: read-out: Ki (value in parentheses), EDM MMP-26
T3 sequence (Q9NRE1 90-261): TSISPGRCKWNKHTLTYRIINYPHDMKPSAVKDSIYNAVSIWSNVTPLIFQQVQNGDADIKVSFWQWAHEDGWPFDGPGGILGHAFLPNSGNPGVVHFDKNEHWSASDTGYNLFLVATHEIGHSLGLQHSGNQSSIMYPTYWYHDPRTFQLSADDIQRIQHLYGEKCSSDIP
Source text: as §1, §2, §3

Row | Structure (SMILES) | Ki [1] [µM] | Ki [2] [µM] | Ki (MMP-13 (COL-3)) [µM] | Ki [3] [µM] | melting point [°C] | IC50 [1] [µM]
1 | NC(=O)N1C[C@H](NS(=O)(=O)c2ccc(Oc3ccccc3)cc2)[C@@H](S)C1 (racemic) [Example 1, (±)-N-Carbamoyl-trans-3-(4-phenoxybenzenesulfonamido)-4-mercaptopyrrolidine] | 4.1 | 0.011 | 0.05 | 0.032 | 170 to 171 | 
2 | O=C(NCCN1C(=O)c2ccccc2C1=O)N1C[C@H](NS(=O)(=O)c2ccc(Oc3ccccc3)cc2)[C@@H](S)C1 (racemic) [Example 2, (±)-N-(2-Phthalimidoethylaminocarbonyl)-trans-3-(4-phenoxybenzenesulfonamido)-4-mercaptopyrrolidine] | 2.8 | 0.021 | 0.027 | 0.041 |  | 
3 | O=S(=O)(N[C@H]1CNC[C@@H]1S)c1ccc(Oc2ccccc2)cc1 (racemic) [Example 3, (±)-trans-3-(4-Phenoxybenzenesulfonamido)-4-mercaptopyrrolidine Hydrochloride] |  | 0.11 | 0.035 | 0.028 |  | ~25
4 | CN([C@H]1CN(C(N)=O)C[C@@H]1S)S(=O)(=O)c1ccc(Oc2ccccc2)cc1 (racemic) [Example 4, (±)-N-Carbamoyl-trans-3-(N-methyl-4-phenoxybenzenesulfonamido)-4-mercaptopyrrolidine] | 0.85 | 0.062 | 0.028 | 0.019 |  | 
5 | O=C(OCc1ccccc1)N1C[C@H](NS(=O)(=O)c2ccc(Oc3ccccc3)cc2)[C@@H](S)C1 (racemic) [Example 5, (±)-N-(Benzyloxycarbonyl)-trans-3-(4-phenoxybenzenesulfonamido)-4-mercaptopyrrolidine] |  | 0.1 | 0.45 | 0.072 | 142 to 143 | > 12.5
6 | O=C(OCc1ccccc1)N1C[C@H](NS(=O)(=O)c2ccc(-c3ccccc3)cc2)[C@@H](S)C1 (racemic) [Example 6, (±)-N-(Benzyloxycarbonyl)-trans-3-(4-phenylbenzenesulfonamido)-4-mercaptopyrrolidine] |  | 3.1 | 0.1 | 0.65 |  | > 130
7 | NCCCCCC(=O)N1C[C@H](NS(=O)(=O)c2ccc(Oc3ccccc3)cc2)[C@@H](S)C1 (racemic) [Example 7, (±)-N-(6-Aminohexanoyl)-trans-3-(4-phenoxybenzene-sulfonamido)-4-mercaptopyrrolidine Hydrochloride] |  | 0.005 | 0.002 | 0.004 |  | > 3
8 | CC(=O)NCCCCCC(=O)N1C[C@H](NS(=O)(=O)c2ccc(Oc3ccccc3)cc2)[C@@H](S)C1 (racemic) [Example 8, (±)-N-(6-Acetamidohexanoyl)-trans-3-(4-phenoxy-benzenesulfonamido)-4-mercaptopyrrolidine] |  | 0.004 | 0.0017 | 0.003 |  | > 6
9 | CC(=O)NCCCCCC(=O)N1C[C@H](NS(=O)(=O)c2ccc(-c3ccccc3)cc2)[C@@H](S)C1 (racemic) [Example 9, (±)-N-(6-Acetamidohexanoyl)-trans-3-(4-phenylbenzene-sulfonamido)-4-mercaptopyrrolidine] |  | 0.07 | 0.047 | 0.27 |  | > 6
